Patent US9144539B2, “Methioninase inhibitor and composition and food or drink containing the same” (Lotte Co., Ltd., priority 2006, dated 2015)

Target: T1, methioninase (Fusobacterium nucleatum subsp. nucleatum, UniProt Q8RDT4)
T1 construct: disrupted by sonication to obtain the enzyme; endogenous in cells; host or cells: Fusobacterium nucleatum JCM 8532, sonicated cell lysate (unpurified)
T1 sequence (Q8RDT4 1-395): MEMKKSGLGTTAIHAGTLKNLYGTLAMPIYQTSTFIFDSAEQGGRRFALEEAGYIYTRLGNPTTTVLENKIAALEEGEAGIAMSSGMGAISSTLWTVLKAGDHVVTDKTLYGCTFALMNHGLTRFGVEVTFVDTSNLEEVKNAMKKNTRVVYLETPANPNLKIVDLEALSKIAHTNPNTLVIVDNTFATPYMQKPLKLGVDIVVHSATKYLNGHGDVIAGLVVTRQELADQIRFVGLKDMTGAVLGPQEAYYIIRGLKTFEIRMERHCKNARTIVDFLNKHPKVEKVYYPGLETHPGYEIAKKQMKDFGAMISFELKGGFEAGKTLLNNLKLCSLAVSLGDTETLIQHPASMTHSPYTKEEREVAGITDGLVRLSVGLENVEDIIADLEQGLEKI
Assay: Cell-free methioninase inhibition test (α-ketobutyrate production from methionine)
Assay type: biochemical
Details: cell-free enzyme from sonicated bacteria; read-out: IC50 against methioninase (converted)

| SMILES | IC50 [µM] |
| --- | --- |
| CC(C)=CCC[C@]1(C)Oc2c(CC=C(C)C)cc(C(=O)O)cc2C[C@@H]1O [Myrsinoic acid C, myrsinoic acid C] | 13.9 |
| CC(C)=CCCC(C)(O)C1Cc2cc(C(=O)O)cc(CC=C(C)C)c2O1 (stereo not drawn) [Myrsinoic acid B, myrsinoic acid B] | 11.2 |
| CC(C)=CCC/C(C)=C/Cc1cc(C(=O)O)cc(C/C=C(\C)CCC=C(C)C)c1O [Myrsinoic acid E (Synthesized), Myrsinoic acid E] | 12.2 |
| CC(C)=CCC/C(C)=C/Cc1cc(C(=O)O)cc(CC=C(C)C)c1O [Myrsinoic acid A, myrsinoic acid A] | 14.6 |
| CC(C)=CC/C=C(\C)C1Cc2cc(C(=O)O)cc(CC=C(C)C)c2O1 (stereo not drawn) [Myrsinoic acid F, myrsinoic acid F] | 8.81 |
| CC(C)=CCC/C(C)=C/Cc1cc(C(=O)O)cc(C/C=C(\C)CCC=C(C)C)c1O [Myrsinoic acid E, myrsinoic acid E] | 12.2 |
